Tests used:
[1] = Toxicity in ig dosed Mus musculus (mouse); assay type: organism-based; details: in vivo, po
Mus musculus [2] = assay: Toxicity in ig dosed Mus musculus (mouse) assessed as effect on heart after 7 days; assay type: organism-based; details: in vivo, po, 168 h
Mus musculus [3] = assay: Toxicity in ig dosed Mus musculus (mouse) assessed as effect on heart measured post autopsy; assay type: organism-based; details: in vivo, po
Mus musculus [4] = assay: Toxicity in ig dosed Mus musculus (mouse) assessed as effect on kidney measured post autopsy; assay type: organism-based; details: in vivo, po
Mus musculus [5] = assay: Anti-inflammatory activity against xylene-induced ear swelling Mus musculus (mouse) model as suppression of ear swelling at 1.11 mmol/kg, ig measured 1 hr after xylene challenge; assay type: functional; details: po
Mus musculus [6] = assay: Analgesic activity in Mus musculus (mouse) assessed as pain threshold at 1.1 mmol/kg, ig after 30 min by hot plate test (reference value: 24.88 +/- 5.28 sec); assay type: functional
Mus musculus [7] = assay: Toxicity in ig dosed Mus musculus (mouse) assessed as mortality within 24 hr; assay type: organism-based; details: in vivo, po
Mus musculus [8] = assay: Anti-inflammatory activity against xylene-induced ear swelling Mus musculus (mouse) model as suppression of ear swelling at 0.56 mmol/kg, ig measured 1 hr after xylene challenge; assay type: functional; details: po
Rattus norvegicus [9] = assay: Antipyretic activity against yeast-induced hyperthermia in Rattus norvegicus (rat) assessed as change in body temperature at 1.5 mmol/kg after 4 hr; assay type: functional, organism-based
Mus musculus [10] = assay: Analgesic activity in Mus musculus (mouse) assessed as pain threshold at 0.56 mmol/kg, ig after 30 min by hot plate test (reference value: 24.88 +/- 5.28 sec); assay type: functional
Rattus norvegicus [11] = assay: Antipyretic activity against yeast-induced hyperthermia in Rattus norvegicus (rat) assessed as change in body temperature at 1 mmol/kg after 2 hr; assay type: functional, organism-based
Mus musculus [12] = assay: Toxicity in ig dosed Mus musculus (mouse) assessed as effect on spleen after 7 days; assay type: organism-based; details: in vivo, po, 168 h
Rattus norvegicus [13] = assay: Antipyretic activity against yeast-induced hyperthermia in Rattus norvegicus (rat) assessed as change in body temperature at 1.5 mmol/kg after 2 hr; assay type: functional, organism-based
Mus musculus [14] = assay: Analgesic activity in Mus musculus (mouse) assessed as pain threshold at 0.56 mmol/kg, ig after 180 min by hot plate test (reference value: 17.67 +/- 5.78 sec); assay type: functional
Mus musculus [15] = assay: Analgesic activity in Mus musculus (mouse) assessed as pain threshold at 1.1 mmol/kg, ig after 180 min by hot plate test (reference value: 17.67 +/- 5.78 sec); assay type: functional
Mus musculus [16] = assay: Analgesic activity in Mus musculus (mouse) assessed as pain threshold at 1.1 mmol/kg, ig after 60 min by hot plate test (reference value: 21.28 +/- 3 sec); assay type: functional
Rattus norvegicus [17] = assay: Antipyretic activity against yeast-induced hyperthermia in Rattus norvegicus (rat) assessed as change in body temperature at 1 mmol/kg after 4 hr; assay type: functional, organism-based
Mus musculus [18] = assay: Analgesic activity in Mus musculus (mouse) assessed as pain threshold at 0.56 mmol/kg, ig after 60 min by hot plate test (reference value: 21.28 +/- 3 sec); assay type: functional
Mus musculus [19] = assay: Toxicity in ig dosed Mus musculus (mouse) assessed as effect on liver after 7 days; assay type: organism-based; details: in vivo, po, 168 h
Rattus norvegicus [20] = assay: Antipyretic activity against yeast-induced hyperthermia in Rattus norvegicus (rat) assessed as change in body temperature at 2 mmol/kg after 2 hr; assay type: functional, organism-based
Mus musculus [21] = assay: Analgesic activity in Mus musculus (mouse) assessed as pain threshold at 0.56 mmol/kg, ig after 120 min by hot plate test (reference value: 19.06 +/- 4.55 sec); assay type: functional
Mus musculus [22] = assay: Analgesic activity in Mus musculus (mouse) assessed as pain threshold at 1.1 mmol/kg, ig after 120 min by hot plate test (reference value: 19.06 +/- 4.55 sec); assay type: functional
Rattus norvegicus [23] = assay: Antipyretic activity against yeast-induced hyperthermia in Rattus norvegicus (rat) assessed as change in body temperature at 2 mmol/kg after 4 hr; assay type: functional, organism-based
Mus musculus [24] = assay: Toxicity in ig dosed Mus musculus (mouse) assessed as effect on spleen measured post autopsy; assay type: organism-based; details: in vivo, po
Rattus norvegicus [25] = assay: Antipyretic activity against yeast-induced hyperthermia in Rattus norvegicus (rat) assessed as change in body temperature at 1.5 mmol/kg after 6 hr; assay type: functional, organism-based
Mus musculus [26] = assay: Toxicity in ig dosed Mus musculus (mouse) assessed as effect on liver measured post autopsy; assay type: organism-based; details: in vivo, po
Rattus norvegicus [27] = assay: Antipyretic activity against yeast-induced hyperthermia in Rattus norvegicus (rat) assessed as change in body temperature at 1 mmol/kg after 6 hr; assay type: functional, organism-based
Rattus norvegicus [28] = assay: Antipyretic activity against yeast-induced hyperthermia in Rattus norvegicus (rat) assessed as change in body temperature at 2 mmol/kg after 6 hr; assay type: functional, organism-based
Mus musculus [29] = assay: Toxicity in ig dosed Mus musculus (mouse) assessed as effect on kidney after 7 days; assay type: organism-based; details: in vivo, po, 168 h

## C=CCc1ccc(OC(=O)c2ccccc2OC(C)=O)c(OC)c1 [ASPIRIN EUGENOL ESTER]
[1]
  LD50: 10900 mg/kg
Mus musculus [2]
  Activity: Non-toxic
Mus musculus [3]
  Activity: Non-toxic
Mus musculus [4]
  Activity: Non-toxic
Mus musculus [5]
  inhibition in vivo at 1110 µmol/kg: 45.9%
Mus musculus [6]
  Time: 29.5 s
Mus musculus [7]
  Activity: Toxic
Mus musculus [8]
  inhibition in vivo at 560 µmol/kg: 44.8%
Rattus norvegicus [9]
  deltaT: -1.4 °C
Mus musculus [10]
  Time: 24.45 s
Rattus norvegicus [11]
  deltaT: -1.2 °C
Mus musculus [12]
  Activity: Non-toxic
Rattus norvegicus [13]
  deltaT: -1.14 °C
Mus musculus [14]
  Time: 29.13 s
Mus musculus [15]
  Time: 29.69 s
Mus musculus [16]
  Time: 28.8 s
Rattus norvegicus [17]
  deltaT: -1.29 °C
Mus musculus [18]
  Time: 28.81 s
Mus musculus [19]
  Activity: Non-toxic
Rattus norvegicus [20]
  deltaT: -2.09 °C
Mus musculus [21]
  Time: 26.85 s
Mus musculus [22]
  Time: 28.74 s
Rattus norvegicus [23]
  deltaT: -2.46 °C
Mus musculus [24]
  Activity: Non-toxic
Rattus norvegicus [25]
  deltaT: -1.45 °C
Mus musculus [26]
  Activity: Non-toxic
Rattus norvegicus [27]
  deltaT: -1.32 °C
Rattus norvegicus [28]
  deltaT: -2.49 °C
Mus musculus [29]
  Activity: Non-toxic

## CC(=O)Oc1ccccc1C(=O)O [ASPIRIN]
[1]
  LD50: 250 mg/kg
Mus musculus [5]
  inhibition in vivo at 1110 µmol/kg: 45.2%
Rattus norvegicus [9]
  deltaT: -1.8 °C
Rattus norvegicus [13]
  deltaT: -2.19 °C
Rattus norvegicus [25]
  deltaT: -1.78 °C

## C=CCc1ccc(O)c(OC)c1 [EUGENOL]
[1]
  LD50: 3000 mg/kg
Mus musculus [5]
  inhibition in vivo at 1110 µmol/kg: 32.9%
Mus musculus [6]
  Time: 30.76 s
Rattus norvegicus [9]
  deltaT: -1.11 °C
Rattus norvegicus [13]
  deltaT: -0.94 °C
Mus musculus [15]
  Time: 25.5 s
Mus musculus [16]
  Time: 28.01 s
Mus musculus [22]
  Time: 24.86 s
Rattus norvegicus [25]
  deltaT: -1.21 °C

— ChEMBL document CHEMBL3045235, “Synthesis of aspirin eugenol ester and its biological activity” (Med Chem Res, 2012)
